# Data reported in patent US20240350520A1, “Method to Stimulate the Growth of Veillonella in Human Gut and Increase Athletic Performance” (Mellitas Health Foods, LLC, priority 2023, published 2024).
# Test system: Veillonella in human gut
# Assay: Veillonella level in human fecal samples by 16S rRNA sequencing before and after 2′-Fucosyllactose supplementation
# Assay type: in vivo
# Source text: The genus, Veillonella, were quantified through the fecal samples collected by the human subjects. 16S ribosomal RNA (rRNA) sequencing was used to quantify the relative abundance of Veillonella in the human fecal samples. Veillonella levels were expressed as a percentage of total gut bacteria. Veillonella levels were quantified before the supplementation of 2′-Fucosyllactose and also after the supplementation of 2′-Fucosyllactose. The human subjects were asked to take 2′-Fucosyllactose daily doses ranging from 2000 mg to 4500 mg for 20-60 days with liquid and not to change their regular diet during the period. Four healthy subjects were asked to test their fecal samples and determine the baseline level of Veillonella before taking the 2′-Fucosyllactose. After collecting their initial fecal samples, they were instructed to take 2′-Fucosyllactose daily at doses between 2000 mg-4500 mg per day with liquid and not change their regular diet. The subject was asked to stop the supplementation of 2′-Fucosyllactose after 20-60 days. The subjects were instructed to collect their fecal samples immediately after stopping the supplementation and the fecal samples were tested thereafter. The levels of Veillonella in the fecal samples were quantified by 16S ribosomal RNA (rRNA) sequencing.
substance,measurement,setting,value
2′-Fucosyllactose,level of Veillonella (percentage of total gut bacteria) after 2′-Fucosyllactose intake,"average of 4 human subjects, fecal samples, oral 2000-4500 mg daily, 30-45 days, 0.018% before intake, P<0.05",0.046%
same,change of the level of Veillonella in the human gut,"daily dosages of 2000-4500 mg, after 20-60 days",significantly increased
same,change of the level of Veillonella in the gut,"human subjects, supplementation for 30-45 days, FIG. 1",significantly increased
